Literature values, collected in PMC8364686, “Safety, tolerability, pharmacokinetics and pharmacodynamics of single oral doses of BI 187004, an inhibitor of 11beta-hydroxysteroid dehydrogenase-1, in healthy male volunteers with overweight or obesity” (Clinical Diabetes and Endocrinology, 2021).
Like-named read-outs stand apart in the source and are kept apart here.

Key:
11beta-HSD1 in AT = settings: single dose, cited from earlier work
11beta-HSD1 = settings: cited from earlier work

CC(C)[C@]1(C)SC(=N[C@H]2C[C@@H]3CC[C@H]2C3)NC1=O [AMG 221]
11beta-HSD1 inhibition in AT (11beta-HSD1 in AT; 24-h study duration): > 90%

N#Cc1ccc(-c2ccc(S(=O)(=O)Nc3cccc(N)n3)cc2)cc1 [PF-915275]
Maximum decrease in urinary (aTHF + THF)/THE ratio (11beta-HSD1; after 14 days of treatment): 26%

CCCSc1nc(N2CCC[C@@H](CC(=O)O)C2)ccc1C(=O)NC1CCCCC1 [AZD4017]
Maximum decrease in urinary (aTHF + THF)/THE ratio (11beta-HSD1; highest dose of 900 mg, after 9 days): 92%

C[C@@H](c1ccc(-c2ccn(C)c(=O)c2)cc1)N1CC[C@](CC(C)(C)O)(c2ccccc2)OC1=O [BI 135585]
11beta-HSD1 inhibition in AT (11beta-HSD1 in AT; 24 h after dosing): 90%
